# Results taken from patent publication US20110189243A1, “PHARMACEUTICAL FORMULATION FOR LOWERING PULMONARY BLOOD PRESSURE” (Ratiopharm GMBH, priority 2008, published 2011).
# Assay: Particle size by laser diffractometry (Malvern Mastersizer 2000)
# Format: physicochemical
# Details: after milling 30 minutes at 350 rpm in a Retsch ball mill
# Protocol: The expression “average particle diameter” relates in the context of this invention to the D50 value of the volume-average particle diameter determined by means of laser diffractometry. In particular, a Malvern Instruments Mastersizer 2000 was used to determine the diameter (wet measurement, 2,000 rpm, ultrasound 60 sec., preferably shading 4 to 13%, preferably dispersion in liquid paraffin, the evaluation using the Fraunhofer method). The average particle diameter, which is also referred to as the D50 value of the integral volume distribution, is defined in the context of this invention as the particle diameter at which 50% by volume of the particles have a smaller diameter than the diameter which corresponds to the D50 value. Similarly, 50% by volume of the particles than have a larger diameter than the D50 value. Analogously, the D10 value of the integral volume distribution is defined as the particle diameter at which 10% by volume of the particles have a smaller diameter than the diameter which corresponds to the D10 value. Accordingly, the D90 value of the integral volume distribution is defined as the particle diameter at which 90% by volume of the particles have a smaller diameter than the diameter which corresponds to the D90 value.
compound,measurement,value
"COC(c1ccccc1)(c1ccccc1)[C@H](Oc1nc(C)cc(C)n1)C(=O)O [Example 3, (2S)-2-(4,6-dimethylpyrimidin-2-yl)oxy-3-methoxy-3,3-di(phenyl)propanoic acid]",particle size d10,5 μm
same,particle size d50,18 μm
same,particle size d90,63 μm
